Reference: ChEMBL document CHEMBL1201862, “PubChem BioAssay data set” (2004)
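All cell lines were grown in 96-well plates and treated with compound for 48 hours. At the GI50, growth is halved.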 Active and inactive are the calls of the source. Rule as the data show it: active = GI50 up to about 1.1 µM and inactive = higher.

How the values were obtained:
Assay in all cases: NCI-60 cell line screen, 48 h
RPMI-8226 = test system: RPMI-8226
HT-29 = test system: HT-29
A549 = test system: A549
EKVX = test system: EKVX
HL-60 = test system: HL-60
SK-OV-3 = test system: SK-OV-3
SNB-19 = test system: SNB-19
OVCAR-5 = test system: OVCAR-5
DU-145 = test system: DU-145
SK-MEL-28 = test system: SK-MEL-28
UACC-257 = test system: UACC-257
U-251 = test system: U-251
NCI-H23 = test system: NCI-H23
K562 = test system: K562
MDA-MB-231 = test system: MDA-MB-231
SW-620 = test system: SW-620
SK-MEL-5 = test system: SK-MEL-5
TK-10 = test system: TK-10
IGROV-1 = test system: IGROV-1
HOP-62 = test system: HOP-62
SNB-75 = test system: SNB-75
PC-3 = test system: PC-3
NCI-H460 = test system: NCI-H460
BT-549 = test system: BT-549
NCI-H226 = test system: NCI-H226
OVCAR-8 = test system: OVCAR-8
SF-268 = test system: SF-268
LOX IMVI = test system: LOX IMVI
UACC-62 = test system: UACC-62
SF-295 = test system: SF-295
M14 = test system: M14
HOP-92 = test system: HOP-92
MOLT-4 = test system: MOLT-4
HCT-116 = test system: HCT-116
786-0 = test system: 786-0
OVCAR-4 = test system: OVCAR-4
A498 = test system: A498
SK-MEL-2 = test system: SK-MEL-2
NCI/ADR-RES = test system: NCI/ADR-RES
UO-31 = test system: UO-31
CAKI-1 = test system: CAKI-1
MDA-N = test system: MDA-N
KM12 = test system: KM12
SN12C = test system: SN12C
NCI-H522 = test system: NCI-H522
ACHN = test system: ACHN
SR = test system: SR
CCRF-CEM = test system: CCRF-CEM
Hs-578T = test system: Hs-578T
HCT-15 = test system: HCT-15
OVCAR-3 = test system: OVCAR-3
RXF 393 = test system: RXF 393
SF-539 = test system: SF-539
MDA-MB-435 = test system: MDA-MB-435
HCC 2998 = test system: HCC 2998
Malme-3M = test system: Malme-3M
T47D = test system: T47D
COLO 205 = test system: COLO 205
MCF7 = test system: MCF7

Measured: GI50

CC(C)c1nc(Cl)nc(Cl)c1Cl
0.279 µM: HCT-15
inactive: A549 1.58 µM | EKVX 1.63 µM | SK-OV-3 4.58 µM | DU-145 3.12 µM | MDA-MB-231 1.24 µM | SNB-75 5.11 µM | NCI-H460 1.29 µM | NCI-H226 2.27 µM | SF-268 1.16 µM | SF-295 2.82 µM | A498 3.27 µM
active: RPMI-8226 0.142 µM | HT-29 0.0479 µM | HL-60 0.0125 µM | SNB-19 0.847 µM | OVCAR-5 0.414 µM | SK-MEL-28 0.357 µM | UACC-257 0.256 µM | U-251 0.61 µM | NCI-H23 0.474 µM | K562 < 0.01 µM | SW-620 < 0.0233 µM | SK-MEL-5 0.861 µM | TK-10 0.468 µM | IGROV-1 0.172 µM | HOP-62 0.794 µM | PC-3 0.401 µM | BT-549 0.0113 µM | OVCAR-8 0.436 µM | LOX IMVI < 0.0365 µM | UACC-62 0.266 µM | M14 0.0843 µM | HOP-92 0.0233 µM | MOLT-4 0.0284 µM | HCT-116 0.0344 µM | 786-0 0.104 µM | OVCAR-4 0.249 µM | SK-MEL-2 0.239 µM | NCI/ADR-RES 0.295 µM | UO-31 0.0711 µM | CAKI-1 < 0.01 µM | MDA-N 0.679 µM | KM12 0.293 µM | SN12C 0.482 µM | NCI-H522 0.303 µM | ACHN 0.264 µM | SR < 0.01 µM | CCRF-CEM < 0.01 µM | Hs-578T 0.302 µM | OVCAR-3 0.142 µM | RXF 393 0.365 µM | SF-539 0.515 µM | MDA-MB-435 0.241 µM | HCC 2998 0.948 µM | Malme-3M 0.304 µM | T47D 0.6 µM | COLO 205 0.239 µM

C[C@]12CC[C@H](O)CC1=CC[C@@H]1C2CC[C@]2(C)c3nn(-c4ccc(F)cc4)nc3CC12 (some centres not stated)
inactive: HT-29 22.4 µM | A549 79.4 µM | EKVX > 100 µM | HL-60 17.5 µM | SK-OV-3 39.4 µM | SNB-19 73.3 µM | OVCAR-5 67.1 µM | DU-145 88.3 µM | SK-MEL-28 > 100 µM | UACC-257 46.8 µM | U-251 95.5 µM | NCI-H23 63.4 µM | K562 4.51 µM | MDA-MB-231 > 100 µM | SW-620 > 100 µM | SK-MEL-5 52.8 µM | TK-10 > 100 µM | IGROV-1 > 100 µM | HOP-62 80.7 µM | SNB-75 28.6 µM | PC-3 52.2 µM | NCI-H460 23.4 µM | BT-549 63.4 µM | NCI-H226 44.2 µM | OVCAR-8 85.7 µM | SF-268 73.8 µM | UACC-62 43.7 µM | SF-295 34 µM | MCF7 > 100 µM | M14 32.6 µM | HOP-92 > 100 µM | MOLT-4 96.4 µM | HCT-116 67.3 µM | 786-0 45.3 µM | OVCAR-4 16.6 µM | A498 60.1 µM | UO-31 81.1 µM | CAKI-1 > 100 µM | MDA-N 81.8 µM | KM12 24.3 µM | SN12C 71 µM | NCI-H522 58.3 µM | ACHN 33.1 µM | SR > 100 µM | CCRF-CEM 58.1 µM | Hs-578T 39.3 µM | OVCAR-3 > 100 µM | RXF 393 61.5 µM | SF-539 18.2 µM | MDA-MB-435 87.3 µM | HCC 2998 24 µM | Malme-3M 74 µM | T47D 24.4 µM | COLO 205 46.5 µM
